Earlier results in PubChem BioAssay AID1259410 (Chemical Carcinogenesis Research Information System (CCRIS), 2018).

Test system: rodent tumor promotion studies, tumor incidence
Experiment: CCRIS tumor promotion studies
Details: Route [Promoter]: DERMAL, Species: MOUSE

Measured: outcome

CCCCCCCCCCCCCC(=O)O[C@@H]1[C@@H](C)[C@@]2(O)[C@@H](C=C(CO)C[C@]3(O)C(=O)C(C)=C[C@@H]23)[C@@H]2C(C)(C)[C@]12OC(C)=O
skin: tumors: Carcinogen: BENZO[B]FLUORANTHRENE, 205-99-2, Doses [Carcinogen]: 40, 100 NMOL TOTAL DOSES GIVEN IN 10 SUBDOSES 1/2 D IN 0.1 ML ACETONE, Doses [Promoter]: 2.5 UG IN 0.1 ML ACETONE 3/WK FOR 30 WK BEGINNING 10 D POST CARCINOGEN TREATMENT (STUDY DURATION: 34 WK), Route [Carcinogen]: DERMAL, Strain/Sex: CD-1/FEMALE | Carcinogen: BENZO[J]FLUORANTHENE, 205-82-3, Doses [Carcinogen]: 0, 1, 3 UMOL (TOTAL DOSE) IN ACETONE SOLUTION 1/2 D FOR 10 DOSES, Doses [Carcinogen]: 0, 1, 3 UMOL (TOTAL DOSE) IN ACETONE SOLUTION 1/2 D FOR 10 DOSES, Doses [Promoter]: 2.5 UG IN ACETONE 3/WK BEGINNING 10 D POST LAST CARCINOGEN DOSE AND CONTINUING FOR 20 WK (STUDY DURATION: 23 WK), Route [Carcinogen]: DERMAL, Strain/Sex: CD-1/FEMALE
skin: papilloma: Carcinogen: CISPLATIN, 15663-27-1, Doses [Carcinogen]: 7.5 MG/KG IN 2.5% SALINE ONCE ON DAY 17 OF GESTATION, Doses [Promoter]: 0, 2 UG IN ACETONE 2/WK FOR 20 WK TO OFFSPRING OF MOTHERS ADMINISTERED CARCINOGEN (STUDY DURATION: 25 WK), Route [Carcinogen]: INTRAPERITONEAL, TRANSPLACENTAL, Strain/Sex: SENCAR/MALE, FEMALE
skin: tumor: Carcinogen: BENZO[B]FLUORANTHENE, 205-99-2, Doses [Carcinogen]: 0, 0.04, 0.12, 0.4 UMOL (TOTAL DOSE) APPLIED IN SUBDOSES 1/2 D FOR 5 WK, Doses [Carcinogen]: 0, 0.04, 0.12, 0.4 UMOL (TOTAL DOSE) APPLIED IN SUBDOSES 1/2 D FOR 5 WK, Doses [Promoter]: 2.5 UG IN 100 µL ACETONE 3/WK FOR 20 WK BEGINNING 10 D POST LAST CARCINOGEN DOSE (STUDY DURATION: 26 WK), Route [Carcinogen]: DERMAL, Strain/Sex: CD-1/FEMALE | Carcinogen: BENZO[B]FLUORANTHENE, 205-99-2, Doses [Carcinogen]: 40, 120, 400 NMOL (TOTAL DOSE) APPLIED 1/2 D FOR 10 SUBDOSES, Doses [Carcinogen]: 40, 120, 400 NMOL (TOTAL DOSE) APPLIED 1/2 D FOR 10 SUBDOSES, Doses [Promoter]: 0, 2.5 UG IN 100 µL ACETONE 3/WK FOR 20 WK BEGINNING 10 D POST CARCINOGEN TREATMENT (STUDY DURATION: 22 WK), Route [Carcinogen]: DERMAL, Strain/Sex: CRL:CD-1/FEMALE | Carcinogen: BENZO[J]FLUORANTHENE, 205-82-3, Doses [Carcinogen]: 0.3, 1, 2 UMOL (TOTAL DOSE) ADMINISTERED IN SUBDOSES 1/2 D, Doses [Carcinogen]: 0.3, 1, 2 UMOL (TOTAL DOSE) ADMINISTERED IN SUBDOSES 1/2 D, Doses [Promoter]: 2.5 UG IN 100 µL ACETONE 3/WK FOR 20 WK BEGINNING 10 D POST LAST CARCINOGEN DOSE (STUDY DURATION: 27 WK), Route [Carcinogen]: DERMAL, Strain/Sex: CD-1/FEMALE | Carcinogen: BENZO[K]FLUORANTHENE, 207-08-9, Doses [Carcinogen]: 4 UMOL (TOTAL DOSE) ADMINISTERED IN 10 SUBDOSES 1/2 D, Doses [Promoter]: 2.5 UG IN 0.1 ML ACETONE 3/WK FOR 30 WK BEGINNING 10 D POST CARCINOGEN TREATMENT (STUDY DURATION: 33 WK), Route [Carcinogen]: DERMAL, Strain/Sex: CRL:CD-1/FEMALE | Carcinogen: CAPTAN, 133-06-2, Doses [Carcinogen]: 450 MG/KG BW IN 200 µL DMSO 3/WK FOR 3 WK, Doses [Promoter]: 0, 5 UG IN 100 µL ACETONE 3/WK FOR 51 WK BEGINNING 1 WK POST CARCINOGEN TREATMENT (STUDY DURATION: 54 WK), Route [Carcinogen]: DERMAL, Strain/Sex: SWISS/FEMALE | Carcinogen: CARBARYL, 63-25-2, Doses [Carcinogen]: 100 MG/KG IN 100 µL ACETONE 3/WK FOR 3 WK, Doses [Promoter]: 0, 5 UG IN 100 µL ACETONE 3/WK FOR 51 WK BEGINNING 1 WK POST CARCINOGEN TREATMENT (STUDY DURATION: 52 WK), Route [Carcinogen]: DERMAL, Strain/Sex: SWISS/FEMALE | Carcinogen: DIBENZO[A,L]PYRENE-8,9-DIHYDRODIOL, 130063-43-3, Doses [Carcinogen]: 100 NMOL IN 100 µL ACETONE ONCE, Doses [Promoter]: 3.24 NMOL/100 µL ACETONE 2/WK BEGINNING 2 WK POST CARCINOGEN DOSE AND CONTINUING FOR 24 WK (STUDY DURATION: 27 WK), Route [Carcinogen]: DERMAL, Strain/Sex: SENCAR/FEMALE | Carcinogen: DIBENZO[A,L]PYRENE-11,12-DIHYDRODIOL, 88191-01-9, Doses [Carcinogen]: 1 NMOL IN 100 µL ACETONE, Doses [Promoter]: 2.16 NMOL IN 100 µL ACETONE 2/WK FOR 27 WK BEGINNING 1 WK POST CARCINOGEN DOSE (STUDY DURATION: 28 WK), Route [Carcinogen]: DERMAL, Strain/Sex: SENCAR/FEMALE | Carcinogen: DIBENZO[A,L]PYRENE-11,12-DIHYDRODIOL, 88191-01-9, Doses [Carcinogen]: 4, 20, 100 NMOL IN 100 µL ACETONE ONCE, Doses [Carcinogen]: 4, 20, 100 NMOL IN 100 µL ACETONE ONCE, Doses [Promoter]: 3.24 NMOL/100 µL ACETONE 2/WK BEGINNING 2 WK POST CARCINOGEN DOSE AND CONTINUING FOR 24 WK (STUDY DURATION: 27 WK), Route [Carcinogen]: DERMAL, Strain/Sex: SENCAR/FEMALE | Carcinogen: DIBENZO[A,L]PYRENE-11,12-DIHYDRODIOL, 155254-86-7, Doses [Carcinogen]: 1.33, 4, 12 NMOL IN 100 ML ACETONE ONCE, Doses [Carcinogen]: 1.33, 4, 12 NMOL IN 100 ML ACETONE ONCE, Doses [Promoter]: 1.62 NMOL IN 100 ML ACETONE 2/WK FOR 28 WK BEGINNING 1 WK POST CARCINOGEN DOSE (STUDY DURATION: 30 WK), Route [Carcinogen]: DERMAL, Strain/Sex: SENCAR/FEMALE
